Values belong to the compound of their own block, whether it stands above or below them.
Columns and labels:
[1] = system: Wnt activity (Sp5-Luc reporter gene, SW480 colon carcinoma cells); test: Screening assay for Wnt activity: Sp5-Luc reporter gene assay in SW480 cells; assay type: cell-based, human; settings: for EC50: overnight incubation
In short: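 SW480 cells stably transduced with a luciferase reporter driven by an Sp5 promoter of eight TCF/LEF sites were plated at 4,000 cells/well in 1% FBS medium. They were exposed overnight at 37° C to a 10-point 1:3 dilution series from 10 μM (0.1% DMSO). Luminescence was normalized to DMSO for four-parameter EC50, or percent inhibition at 10 μM.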

SW480 colon cancer cells = test: Cell viability assay (CellTiter-Blue) in SW480 colon cancer cells; assay type: cell-based, human; settings: for EC50: four days, CellTiter-Blue
In short: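 4-day exposure, 37 °C/5% CO2; ~2×10^3 SW480 cells/well; 8-pt 1:3 curve, 10–0.0045 μM, duplicates vs DMSO controls. Resazurin→resorufin fluorescence readout, ~3 h. EC50 by nonlinear fit; if >10 μM, % inhibition at 10 μM reported.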

[2] = system: primary human mesenchymal stem cells (hMSCs); test: Induction of chondrogenesis in primary human mesenchymal stem cells; assay type: cell-based; settings: 6 days; for Emax / EC50: Homo sapiens, Mesenchymal stem cells, 144 h; for Emax: read-out: Max. Activity as % TGF-β3 activity; for EC50: concentration required to induce 50% levels of chondrogenesis vs TGF-β3, read-out: Conc (nM) of 50% TGF-β3 activity
Procedure: Representative compounds were screened using primary human mesenchymal stem cells (hMSCs) to determine their ability to induce chondrogenesis (process by which cartilage is developed).
Primary human mesenchymal stem cells (hMSCs) were purchased from Lonza (Walkersville, Md.) and expanded in Mesenchymal Stem Cell Growth Media (Lonza). Cells between passage 3 and 6 were used for the experiments.
Each compound was dissolved in DMSO as a 10 mM stock and used to prepare compound source plates. Serial dilution (1:3, 6-point dose-response curves from 2700 nM to 10 nM) and compound transfer was performed using the ECHO 550 (Labcyte, Sunnyvale, Calif.) into 96-well clear bottom assay plates (Greiner Bio-One) with appropriate DMSO backfill for a final DMSO concentration of 0.03%. hMSCs were plated at 20,000 cells/well in 250 μL/well Incomplete Chondrogenic Induction Medium (Lonza; DMEM, dexamethasone, ascorbate, insulin-transferrin-selenium [ITS supplement], gentamycin-amphotericin [GA-1000], sodium pyruvate, proline and L-glutamine). TGF-β3 (10 ng/mL) was used as a positive control for differentiation while negative control wells were treated with 75 nL DMSO for normalization and calculating EC50 values. Cells were incubated at 37° C. and 5% CO2 for 6 days. To image chondrogenic nodules, the cells were fixed using 4% formaldehyde (Electron Microscopy Sciences), and stained with 2 μg/mL Rhodamine B (Sigma-Aldrich) and 20 μM Nile Red (Sigma-Aldrich) [Johnson K., et. al, A Stem Cell-Based Approach to Cartilage Repair, Science, (2012). 336(6082), 717-721]. The nodules imaged (4 images per well at 4× magnification) by excitation at 531 nm and emission at 625 nm and quantified using the CellInsight CX5 (Thermo Scientific). Number of nodules in each well was normalized to the average of 3 DMSO treated wells on the same plate using Excel (Microsoft Inc.). The normalized averages (fold change over DMSO) of 3 replicate wells for each compound concentration were calculated. Due to solubility limitations of some of the compounds, curve fitting was incomplete leading to inaccurate EC50 determinations.
Using TGF-β3 as a positive control, the concentration of representative compounds required to induce 50% levels of chondrogenesis is reported. In addition, the maximum activity of each compound and the respective dose that each compound reached maximum chondrogenesis activity is reported.

[3] = chondrogenic nodules, TGF-β3 (10 ng/mL) positive control
[4] = Homo sapiens, at 10 μM, given for EC50 of >10 μM, read-out: percent inhibition at 10 μM

Structure (SMILES): CN(C)CCNc1cc(F)cc(-c2cccc3[nH]c(-c4n[nH]c5ncc(-c6cncc(CN7CCCCC7)c6)cc45)cc23)c1 [Compound 437, N^1-(3-Fluoro-5-(2-(5-(5-(piperidin-1-ylmethyl)pyridin-3-yl)-1H-pyrazolo[3,4-b]pyridin-3-yl)-1H-indol-4-yl)phenyl)-N^2,N^2-dimethylethane-1,2-diamine]
EC50 ([1]; Homo sapiens): 2.78 µM
EC50 (SW480 colon cancer cells; Homo sapiens, 96 h): 3.86 µM
Emax [2, 3]: 175%
EC50 [2]: 900 nM

Structure (SMILES): CN(C)CCNc1cc(F)cc(-c2cccc3[nH]c(-c4n[nH]c5ncc(-c6ccncc6)cc45)cc23)c1 [Compound 440]
EC50 [1]: 6.07 µM
EC50 (SW480 colon cancer cells): 4.14 µM
Max. Activity as % TGF-β3 activity [2, 3]: 31%
Conc (nM) of Max. activity ([2]; chondrogenic nodules, dose at which maximum chondrogenesis activity was reached): 2700 nM

Structure (SMILES): CN(C)CCNc1cc(F)cc(-c2cccc3[nH]c(-c4n[nH]c5ncc(-c6cncc(NC(=O)C7CCC7)c6)cc45)cc23)c1 [Compound 443, N-(5-(3-(4-(3-((2-(Dimethylamino)ethyl)amino)-5-fluorophenyl)-1H-indol-2-yl)-1H-pyrazolo[3,4-b]pyridin-5-yl)pyridin-3-yl)cyclobutanecarboxamide]
EC50 ([1]; Homo sapiens): 0.215 µM
EC50 (SW480 colon cancer cells; Homo sapiens, 96 h): 1.23 µM
Emax [2, 3]: 78%
EC50 [2]: 100 nM

Structure (SMILES): CN(C)CCNc1cc(F)cc(-c2cccc3[nH]c(-c4n[nH]c5ncc(-c6cncnc6)cc45)cc23)c1 [Compound 449, N^1-(3-Fluoro-5-(2-(5-(pyrimidin-5-yl)-1H-pyrazolo[3,4-b]pyridin-3-yl)-1H-indol-4-yl)phenyl)-N^2,N^2-dimethylethane-1,2-diamine]
EC50 ([1]; Homo sapiens): 2.6 µM
EC50 (SW480 colon cancer cells; Homo sapiens, 96 h): 1.3 µM
Emax [2, 3]: 17%

Structure (SMILES): CS(=O)(=O)NCc1cc(F)cc(-c2cccc3[nH]c(-c4n[nH]c5ncc(-c6cncc(N)c6)cc45)cc23)c1 [Compound 453, N-(3-(2-(5-(5-Aminopyridin-3-yl)-1H-pyrazolo[3,4-b]pyridin-3-yl)-1H-indol-4-yl)-5-fluorobenzyl)methanesulfonamide]
EC50 ([1]; Homo sapiens): 0.157 µM
EC50 (SW480 colon cancer cells; Homo sapiens, 96 h): 0.997 µM
Emax [2, 3]: 189%
EC50 [2]: 900 nM

Continued, in another order:

EC50 ([1]; Homo sapiens): 0.489 µM
EC50 (SW480 colon cancer cells; Homo sapiens, 96 h): 1.07 µM
EC50 [2]: 100 nM
Structure (SMILES): CN(C)Cc1cncc(-c2cnc3[nH]nc(-c4cc5c(-c6cc(F)cc(CNS(C)(=O)=O)c6)cccc5[nH]4)c3c2)c1 [Compound 463, N-(3-(2-(5-(5-((Dimethylamino)methyl)pyridin-3-yl)-1H-pyrazolo[3,4-b]pyridin-3-yl)-1H-indol-4-yl)-5-fluorobenzyl)methane sulfonamide]
Emax [2, 3]: 65%

EC50 ([1]; Homo sapiens): > 10 µM
EC50 (SW480 colon cancer cells; Homo sapiens, 96 h): 3.78 µM
Structure (SMILES): CN(C)CCOc1cncc(-c2cnc3[nH]nc(-c4cc5c(-c6cccnc6)cccc5[nH]4)c3c2)c1 [Compound 565, N,N-Dimethyl-2-((5-(3-(4-(pyridin-3-yl)-1H-indol-2-yl)-1H-pyrazolo[3,4-b]pyridin-5-yl)pyridin-3-yl)oxy)ethan-1-amine]
inhibition at 10 µM [1, 4]: 34.5%
Emax [2, 3]: 46%

EC50 ([1]; Homo sapiens): 3.71 µM
EC50 (SW480 colon cancer cells; Homo sapiens, 96 h): > 10 µM
Structure (SMILES): O=C(CC1CCNCC1)Nc1cncc(-c2cnc3[nH]nc(-c4cc5c(-c6ccccn6)cccc5[nH]4)c3c2)c1 [Compound 595, 2-(Piperidin-4-yl)-N-(5-(3-(4-(pyridin-2-yl)-1H-indol-2-yl)-1H-pyrazolo[3,4-b]pyridin-5-yl)pyridin-3-yl)acetamide]
inhibition at 10 µM (SW480 colon cancer cells; [4]): 11.3%
Emax [2, 3]: 79%

EC50 ([1]; Homo sapiens): 3.34 µM
EC50 (SW480 colon cancer cells; Homo sapiens, 96 h): 3.72 µM
Structure (SMILES): Cc1ncc(-c2cnc3[nH]nc(-c4cc5ccccc5[nH]4)c3c2)n1C [Compound 655, 5-(1,2-Dimethyl-1H-imidazol-5-yl)-3-(1H-indol-2-yl)-1H-pyrazolo[3,4-b]pyridine]
Emax [2, 3]: 47%

EC50 ([1]; Homo sapiens): 2.95 µM
EC50 (SW480 colon cancer cells; Homo sapiens, 96 h): 1.64 µM
EC50 [2]: 30 nM
Structure (SMILES): CN(C)CCNc1cc(F)cc(-c2cccc3[nH]c(-c4n[nH]c5ncc(-c6cncc(OC7CCCCC7)c6)cc45)cc23)c1 [Compound 785, N^1-(3-(2-(5-(5-(Cyclohexyloxy)pyridin-3-yl)-1H-pyrazolo[3,4-b]pyridin-3-yl)-1H-indol-4-yl)-5-fluorophenyl)-N^2,N^2-dimethylethane-1,2-diamine]
Emax [2, 3]: 147%

Reference: patent US20180214428A1, “3-(1H-INDOL-2-YL)-1H-PYRAZOLO[3,4-B]PYRIDINES AND THERAPEUTIC USES THEREOF” (Samumed, LLC, priority 2015, published 2018)
